{"source": "patent US6576673B2", "about": "“Method of deterring woodpeckers” (priority 2001, dated 2003)", "origin": "cited, not measured here", "test_system": "golden fronted adult woodpeckers", "conditions": "painted or applied to a surface of a utility pole; smaller golden fronted adult woodpeckers", "data": [{"smiles": "CC1=CC(=O)CC(C)(C)C1", "note": "[Isophorone, 3,5,5-trimethyl-2-cyclohexen-one-1]", "values": [{"measurement": "repelling woodpeckers", "result": "effective in repelling woodpeckers"}]}]}
